Test results from US20090130194A1, “Methods of Treating Cancer with High Potency Lipid-Based Platinum Compound Formulations Administered Intravenously” (Transave, Inc., priority 2005, published 2009).

Columns and labels:
[1] = Nephrotoxicity: blood urea nitrogen (BUN); type: in vivo; details: MTD
Source text: Nephrotoxicity. ICR mice, 7 weeks old, female, were divided into 4 groups with 3 to 4 mice in each. […] Four days after the injection, the mice were euthanized with Nembutal ip. The blood was drawn and the serum was isolated. The blood urea nitrogen (BUN) was quantitatively measured with a calorimetric method at Antech Diagnostics. Organs including duodenum, heart, kidney, liver, lung, and spleen were resected from the mice and fixed with 10% buffered Formalin. The fixed tissues were processed with standard procedure for H and E staining. A pathology expert Dr. Carman Tornos at the Memorial Sloan-Kettering Cancer Center examined kidney tissues and gave a toxicity grade to each kidney tissue sample. The grading was based on the general pathology guidelines for kidney toxicity.

[2] = Pharmacokinetics and organ distribution of ip and iv injected L-CDDP and CDDP (platinum by ICP-MS); type: in vivo, ICR mice; details: 8 mg/kg
Description: Pharmacokinetics and organ distribution in animals of ip and iv injected lipid-complexed cisplatin and cisplatin (Part II). Sixty ICR mice (female, 7 weeks old) were divided into 4 groups. They received intraperitoneal or intravenous injection of L-CDDP or CDDP, separately. The dose was 12 mg/kg for ip L-CDDP and 8 mg/kg for the rest of treatment groups. At each designed time point, three to four mice were anaesthetized with 70 mg/kg of Nembutal ip (e.g., 3, 20, and 40 min, and 2, 8, 24, 48, and 72 h). […] Organs including liver, lung, and spleen were resected from the mice. The organ samples were homogenized in distilled water (4-fold of the sample weight) and digested with nitric acid. The platinum concentration in each sample was measured by Inductively Coupled Plasma-Mass Spectrometer (ICP-MS). The pharmacokinetics profiles (FIGS. 4, 5, and 6, all Y-axes are concentration of μg platinum in one gram of tissue or fluid per mg of injected dose) and parameters (Table 2) of each formulation were simulated and calculated.

Structure (SMILES): N.N.[Cl][Pt][Cl] [CDDP, cis diamminedichloroplatinum]
- BUN level change (in words) ([1]; either route): increase
- BUN level increase compared with normal controls ([1]; ip, 4 days after injection, p=0.04): 2.1 fold
- AUC, Liver [2]: 19.96 µg·h/g/µg
- AUC, Lung [2]: 5.58 µg·h/g/µg
- AUC, Spleen [2]: 8.11 µg·h/g/µg
- Cmax, Liver [2]: 0.74 µg/g/µg
- Cmax, Lung [2]: 0.28 µg/g/µg
